Data from PMC8171112 (Bioorganic & medicinal chemistry, 2021).

Assays:
[1] = molecular target: catalytic domain of TET2 (TET2CD) (Homo sapiens, UniProt Q6N021); assay: ELISA of 5hmC for TET2 activity, cell free; format: biochemical; settings: for potency relative to NOG: cell free ELISA, more potent than NOG (Figure 1)
TET2 [2] = settings: read-out: IC50 TET2; Figure 3 insert; cited from earlier work
[3] = system: 16 other α-KG/Fe(II) dependent enzymes; settings: cited from earlier work
TET2CD = TET2CD (Homo sapiens, UniProt Q6N021); assay: LC-MS/MS analysis to probe TET2CD modification; settings: TET2CD 10 μM, 2a 100 μM, 2 h, trypsin and chymotrypsin digestion
[4] = system: TET enzyme (5hmC/5mC) in THP1 cells; format: cell-based; settings: prodrug esters, three concentrations, 12 h
TET1 [5] = settings: read-out: IC50 TET1; cited from earlier work
wild type (WT)-TET2 = settings: cited from earlier work
TET2 [6] = settings: 10 mM, 0.1 mM α-KG; cited from earlier work
TET1 [7] = settings: 10 mM, 0.1 mM α-KG; cited from earlier work

C=C(CC(O)C(=O)O)C(=O)O (centres unmarked) [2a, 2-Hydroxy-4-methylenepentanedioic acid]
potency relative to NOG [1]: approximately 2 fold
IC50 (TET2 [2]): 9.4 µM
inhibition of 16 other α-KG/Fe(II) dependent enzymes [3]: does not inhibit
covalent modification of +160 Da of TET2CD peptides (TET2CD): did not observed covalent modification of +160 Da of any peptide

C=C(C[C@@H](O)C(=O)O)C(=O)O [16R, (R)-2-Hydroxy-4-methylenepentanedioic acid]
potency relative to NOG [1]: approximately 2 fold

C=C(C[C@H](O)C(=O)O)C(=O)O [16S, (S)-2-Hydroxy-4-methylenepentanedioic acid]
potency relative to NOG [1]: approximately 2 fold

COC(=O)C(=O)CC(C)C(=O)OC (centres unmarked) [21a]
TET inhibition in THP1 cells, dot blot [4]: no inhibition

Nc1nc(=O)n(-c2cccc(-c3ccccc3)c2)cc1Cl [Bobcat 339]
IC50 (TET1 [5]): 33 µM

COC(=O)CCC(=O)C(=O)OC [DMKG, dimethyl-2-ketoglutarate, reference compound]
TET inhibition in THP1 cells, dot blot [4]: no inhibition

CC(C)CC(NC(=O)C(=O)O)C(=O)O (centres unmarked) [NOG-5]
effect on wild type (WT)-TET2 (wild type (WT)-TET2): no effect

O=C(O)CC[C@H](O)C(=O)O [S-2-HG]
inhibition of TET2 activity (TET2 [6]): inhibiting most of TET1 and TET2 activity
inhibition of TET1 activity (TET1 [7]): inhibiting most of TET1 and TET2 activity

C=C(CC(Cl)C(=O)OC)C(=O)OC (centres unmarked) [compound 9, Dimethyl 2-chloro-4-methylenepentanedioate]
TET inhibition in THP1 cells, dot blot [4]: good activity consistent with 1a

O=C(O)CCC(=O)C(=O)O [α-KG, α-ketoglutarate, reference compound]
EC50 ([1]; read-out: EC50, TET2CD dioxygenase activity response to α-KG, ELISA, Figure 5A): 3.5 µM
